# Key:
# [1] = test system: Raji Burkitt lymphoma cells; assay: Apoptosis assay (Annexin V/PI staining, FACS) on Raji cells; format: cell-based, human; conditions: 48 h, A2 10 μg/ml, Annexin V positive cells, mean of three experiments
# [2] = test system: Ramos Burkitt lymphoma cells; assay: Apoptosis assay (Annexin V/PI staining, FACS) on Ramos cells; format: cell-based, human; conditions: 48 h, A2 10 μg/ml, Annexin V positive cells, mean of three experiments
# [3] = test system: DOHH2 tumors (human follicular lymphoma); assay: Efficacy in subcutaneous DOHH2 human follicular lymphoma xenograft (Example 3); format: in vivo, C.B-17 scid mice; conditions: day 16; for anti-tumor effect in words: DOHH2 tumors
# DoHH2 tumor cells = assay: DoHH2 human xenograft tumor model (Example 2); format: in vivo, CB-17 SCID mice; conditions: A2 10 mg/kg twice weekly, bendamustine 10 mg/kg twice weekly ip; present-tense example
# [4] = Body weight / tolerability in DOHH2 tumor-bearing mice (Example 3); conditions: for tolerability in words: body weight as indicator of tolerability
structure (smiles),measurement,setting,value
"Cn1c(CCCC(=O)O)nc2cc(N(CCCl)CCCl)ccc21 [Bendamustine, 4-[5-[Bis(2-chloroethyl)amino]-1-methylbenzimidazol-2-yl]butanoic acid]",% apoptotic cells,[1]; bendamustine 200 μM column,10%
same,% apoptotic cells,[1]; bendamustine 400 μM column,13%
same,% apoptotic cells,[2]; bendamustine 100 μM column,19%
same,% apoptotic cells,[2]; bendamustine 400 μM column,35%
same,anti-tumor effect in words,[3],significant inhibition of tumor growth
same,anti-tumor effect in words,[3]; listed as bendamustine,growth inhibited
same,CR (complete tumor regression),[3]; 7 mice per group,0 x/7
same,PR (partial tumor regression),[3]; 7 mice per group,0 x/7
same,TGI,"[3]; median, antibody A2 10 mg/kg i.p. twice weekly, bendamustine 20 mg/kg i.p. two injections",57%
same,anti-tumor effect in words,DoHH2 tumor cells,significant anti-tumor effect
same,tolerability in words,[4],resulted in weight loss
same,tolerability in words,[4]; listed as bendamustine,moderately tolerated
same,body weight loss in median,[4]; within the first week of treatment,up to 7.9%

# Source: patent publication US20150231242A1, “COMBINATION OF CD37 ANTIBODIES WITH BENDAMUSTINE” (Boehringer Ingelheim International GmbH, priority 2012, published 2015)
